Source: USRE48461E1, “Modulation of androgen receptor expression” (Ionis Pharmaceuticals, Inc., priority 2012, dated 2021)

Columns and labels:
Format in all cases: cell-based, human
C4-2 cells = test: C4-2 cell proliferation (complete or CSS+DHT medium); details: C4-2 cells, 5 days
Experimental: After a treatment period of 5 days in complete medium or CSS+1 nM DHT medium, the proliferative capacity of the cancer cells was measured with using CellTiter 96® AQueous One Solution or CellTiter-Glo® Cell Proliferation kit (Promega), following the manufacturer's instructions. […] The proliferative capacity of cells cultured in CSS medium without DHT is 17% of untreated control levels.

AR mRNA = test: AR RNA expression in C4-2 cells (complete, CSS+DHT medium); details: 48 hrs; for Percent expression of AR: C4-2 cells, CSS + DHT medium
Experimental: Cells were plated at 1,000 cells per well. […] After an incubation period of 48 hrs, RNA levels of AR, PSA and TMPRSS2 were measured.
Cells were plated at 2,000 cells per well and cultured in CSS media with 1 nM DHT. […] After an incubation period of 48 hrs, RNA levels of AR, PSA and TMPRSS2 were measured.

PSA mRNA = test: PSA expression in VCaP cells; details: RNAiMax, 48 hrs
Experimental: (§1) Cells were plated at 10,000 cells per well. […] After an incubation period of 48 hrs, RNA levels of full length AR, the V7 variant, PSA and TMPRSS2 were measured.
(§2) After an incubation period of 48 hrs, RNA levels of full length AR, the V7 variant, PSA and TMPRSS2 were measured. The data is presented in Tables 108 expressed as percent expression of gene levels compared to the untreated control.
(§3) Cells were plated at 15,000 cells per well and cultured in CSS media for 16 hours. […] After 4 hrs, 1 nM DHT was added. […] After an incubation period of 48 hrs, RNA levels of AR, PSA and TMPRSS2 were measured.

22RV1 cells [1] = test: 22RV1 cell proliferation, ASO in combination with MDV3100 (Example 22); details: for Proliferation (% untreated control) in 22RV1 without MDV-3100: RNAiMAX, 3 days
Experimental: 22RV1 cells were plated at 2,000 cells per well in 5% CSS medium for 48 hours. […] ISIS 549148 was included as a negative control. […] After a treatment period of 3 days, the proliferative capacity of the cancer cells was measured with CellTiter 96® AQueous One Solution Cell Proliferation kit (Promega), following the manufacturer's instructions. Results are presented in Tables 58-62 as percent inhibition of proliferation, relative to non-treated cells.

TMPRSS2 mRNA [2] = test: TMPRSS2 expression in VCaP cells; details: RNAiMax, 48 hrs
Experimental: as §1, §2, §3

TMPRSS2 mRNA [3] = test: TMPRSS2 expression in 22RV1 cells; details: RNAiMax, 48 hrs
Experimental: Cells were plated at 1,000 cells per well. […] After an incubation period of 48 hrs, RNA levels of full length AR, the V7 variant, PSA and TMPRSS2 were measured.
After an incubation period of 48 hrs, RNA levels of full length AR, the V7 variant, PSA and TMPRSS2 were measured.
Cells were plated at 2,000 cells per well and cultured in CSS media for 16 hours. […] After 4 hrs, 1 nM DHT was added. […] After an incubation period of 48 hrs, RNA levels of AR, AR V7 variant, PSA and TMPRSS2 were measured.

22RV1 cells [4] = test: 22RV1 apoptosis (Caspase-glo 3/7); details: 22RV1 cells, 72 hours
Experimental: After a treatment period of 72 hours in complete medium or CSS+DHT medium, apoptosis of the cancer cells was measured with Caspase-glo 3/7 assay kit (Promega). Results are presented in Tables 131 and 132 as percent apoptosis of the cells, relative to non-treated cells.

VCaP cells = test: VCaP apoptosis (Caspase-Glo 3/7); details: VCaP cells, complete medium, 72 hours
Experimental: After a treatment period of 72 hours in complete medium, apoptosis of the cancer cells was measured with Caspase-Glo 3/7 assay (Promega). Results are presented in Tables 117 and 118 as percent apoptosis of the cells, relative to non-treated cells.

For “GGCTACTACGCCGTCA (3-10-3 (S)-cEt gapmer, chemistry not fully specified) [ISIS 549148, reference compound]”, the “Proliferation (% untreated control)” value (C4-2 cells; CSS + DHT medium, 0.04 μM) was 102 % untreated control, the “Proliferation (% untreated control)” value (C4-2 cells; CSS + DHT medium, 0.2 μM) was 82 % untreated control and the “Proliferation (% untreated control)” value (C4-2 cells; CSS + DHT medium, 1 μM) was 82 % untreated control. For the same sequence, the “Proliferation (% untreated control)” value (C4-2 cells; CSS + DHT medium, 5.0 μM) was 91 % untreated control, the “Proliferation (% untreated control)” value (C4-2 cells; complete medium, 0.04 μM) was 106 % untreated control and the “Proliferation (% untreated control)” value (C4-2 cells; complete medium, 0.2 μM) was 112 % untreated control. For the same sequence, the “Proliferation (% untreated control)” value (C4-2 cells; complete medium, 1 μM) was 91 % untreated control, the “Proliferation (% untreated control)” value (C4-2 cells; complete medium, 5.0 μM) was 94 % untreated control and the “Percent expression of AR” value (AR mRNA; 0.04 μM) was 101%. The “Percent expression of AR” value (AR mRNA; 0.2 μM) was 101%, the “Percent expression of AR” value (AR mRNA; 1 μM) was 118% and the “Percent expression of AR in C4-2 cells cultured in complete medium” value (“Percent expression of AR … in complete medium” for short) (AR mRNA; 0.04 μM) was 89%. For the same sequence, the “Percent expression of AR … in complete medium” value (AR mRNA; 0.2 μM) was 90%, the “Percent expression of AR … in complete medium” value (AR mRNA; 1 μM) was 84% and the “Percent expression of AR … in complete medium” value (AR mRNA; 5.0 μM) was 86%. For the same sequence, the “Percent inhibition of PSA expression” value (PSA mRNA; CSS + DHT medium, 1.34 nM) was 0%, the “Percent inhibition of PSA expression” value (PSA mRNA; CSS + DHT medium, 4.0 nM) was 3% and the “Percent inhibition of PSA expression” value (PSA mRNA; CSS + DHT medium, 13.4 nM) was 9%. For the same sequence, the “Percent inhibition of PSA expression” value (PSA mRNA; CSS + DHT medium, 40 nM) was 0%, the “Percent inhibition of PSA expression” value (PSA mRNA; complete medium, 1.34 nM) was 2% and the “Percent inhibition of PSA expression” value (PSA mRNA; complete medium, 4.0 nM) was 0%. For the same sequence, the “Percent inhibition of PSA expression” value (PSA mRNA; complete medium, 13.4 nM) was 0%, the “Percent inhibition of PSA expression” value (PSA mRNA; complete medium, 40 nM) was 20% and the “Proliferation (% untreated control) in 22RV1 cells with 0.04 μM MDV-3100” value (22RV1 cells [1]; ASO dose 0.4 nM + 0.04 μM MDV-3100) was 106 % untreated control. The “Proliferation (% untreated control) in 22RV1 cells with 0.2 μM MDV-3100” value (22RV1 cells [1]; ASO dose 0.4 nM + 0.2 μM MDV-3100) was 101 % untreated control, the “Proliferation (% untreated control) in 22RV1 cells with 1.0 μM MDV-3100” value (22RV1 cells [1]; ASO dose 0.4 nM + 1.0 μM MDV-3100) was 106 % untreated control and the “Proliferation (% untreated control) in 22RV1 cells with 5.0 μM MDV-3100” value (22RV1 cells [1]; ASO dose 0.4 nM + 5.0 μM MDV-3100) was 96 % untreated control. For the same sequence, the “Proliferation (% untreated control) in 22RV1 without MDV-3100” value (22RV1 cells [1]; ASO dose 0.4 nM) was 109 % untreated control, the “Proliferation (% untreated control) in 22RV1 cells with 0.04 μM MDV-3100” value (22RV1 cells [1]; ASO dose 1.34 nM + 0.04 μM MDV-3100) was 106 % untreated control and the “Proliferation (% untreated control) in 22RV1 cells with 0.2 μM MDV-3100” value (22RV1 cells [1]; ASO dose 1.34 nM + 0.2 μM MDV-3100) was 115 % untreated control. For the same sequence, the “Proliferation (% untreated control) in 22RV1 cells with 1.0 μM MDV-3100” value (22RV1 cells [1]; ASO dose 1.34 nM + 1.0 μM MDV-3100) was 95 % untreated control, the “Proliferation (% untreated control) in 22RV1 cells with 5.0 μM MDV-3100” value (22RV1 cells [1]; ASO dose 1.34 nM + 5.0 μM MDV-3100) was 102 % untreated control and the “Proliferation (% untreated control) in 22RV1 without MDV-3100” value (22RV1 cells [1]; ASO dose 1.34 nM) was 109 % untreated control. For the same sequence, the “Proliferation (% untreated control) in 22RV1 cells with 0.04 μM MDV-3100” value (22RV1 cells [1]; ASO dose 4.0 nM + 0.04 μM MDV-3100) was 100 % untreated control, the “Proliferation (% untreated control) in 22RV1 cells with 0.2 μM MDV-3100” value (22RV1 cells [1]; ASO dose 4.0 nM + 0.2 μM MDV-3100) was 110 % untreated control and the “Proliferation (% untreated control) in 22RV1 cells with 1.0 μM MDV-3100” value (22RV1 cells [1]; ASO dose 4.0 nM + 1.0 μM MDV-3100) was 98 % untreated control. The “Proliferation (% untreated control) in 22RV1 cells with 5.0 μM MDV-3100” value (22RV1 cells [1]; ASO dose 4.0 nM + 5.0 μM MDV-3100) was 98 % untreated control, the “Proliferation (% untreated control) in 22RV1 without MDV-3100” value (22RV1 cells [1]; ASO dose 4.0 nM) was 109 % untreated control and the “Proliferation (% untreated control) in 22RV1 cells with 0.04 μM MDV-3100” value (22RV1 cells [1]; ASO dose 13.4 nM + 0.04 μM MDV-3100) was 85 % untreated control. The “Proliferation (% untreated control) in 22RV1 cells with 0.2 μM MDV-3100” value (22RV1 cells [1]; ASO dose 13.4 nM + 0.2 μM MDV-3100) was 96 % untreated control, the “Proliferation (% untreated control) in 22RV1 cells with 1.0 μM MDV-3100” value (22RV1 cells [1]; ASO dose 13.4 nM + 1.0 μM MDV-3100) was 82 % untreated control and the “Proliferation (% untreated control) in 22RV1 cells with 5.0 μM MDV-3100” value (22RV1 cells [1]; ASO dose 13.4 nM + 5.0 μM MDV-3100) was 85 % untreated control. The “Proliferation (% untreated control) in 22RV1 without MDV-3100” value (22RV1 cells [1]; ASO dose 13.4 nM) was 99 % untreated control, the “Percent inhibition of TMPRSS2 expression” value (TMPRSS2 mRNA [2]; CSS + DHT medium, 1.34 nM) was 0% and the “Percent inhibition of TMPRSS2 expression” value (TMPRSS2 mRNA [2]; CSS + DHT medium, 4.0 nM) was 0%. For the same sequence, the “Percent inhibition of TMPRSS2 expression” value (TMPRSS2 mRNA [2]; CSS + DHT medium, 13.4 nM) was 0%, the “Percent inhibition of TMPRSS2 expression” value (TMPRSS2 mRNA [2]; CSS + DHT medium, 40 nM) was 0% and the “Percent inhibition of TMPRSS2 expression” value (TMPRSS2 mRNA [2]; complete medium, 1.34 nM) was 0%. For the same sequence, the “Percent inhibition of TMPRSS2 expression” value (TMPRSS2 mRNA [2]; complete medium, 4.0 nM) was 0%, the “Percent inhibition of TMPRSS2 expression” value (TMPRSS2 mRNA [2]; complete medium, 13.4 nM) was 0% and the “Percent inhibition of TMPRSS2 expression” value (TMPRSS2 mRNA [2]; complete medium, 40 nM) was 0%. For the same sequence, the “Percent inhibition of TMPRSS2 expression” value (TMPRSS2 mRNA [3]; CSS + DHT medium, 1.34 nM) was 0%, the “Percent inhibition of TMPRSS2 expression” value (TMPRSS2 mRNA [3]; CSS + DHT medium, 4.0 nM) was 3% and the “Percent inhibition of TMPRSS2 expression” value (TMPRSS2 mRNA [3]; CSS + DHT medium, 13.4 nM) was 1%. The “Percent inhibition of TMPRSS2 expression” value (TMPRSS2 mRNA [3]; complete medium, 1.34 nM) was 15%, the “Percent inhibition of TMPRSS2 expression” value (TMPRSS2 mRNA [3]; complete medium, 4.0 nM) was 9% and the “Percent inhibition of TMPRSS2 expression” value (TMPRSS2 mRNA [3]; complete medium, 13.4 nM) was 14%. For the same sequence, the “Percent inhibition of TMPRSS2 expression” value (TMPRSS2 mRNA [3]; complete medium, 40 nM) was 4%, the “Apoptosis (% untreated control)” value (22RV1 cells [4]; CSS + DHT medium, 1.34 nM) was 113 % untreated control and the “Apoptosis (% untreated control)” value (22RV1 cells [4]; CSS + DHT medium, 4.0 nM) was 94 % untreated control. For the same sequence, the “Apoptosis (% untreated control)” value (22RV1 cells [4]; CSS + DHT medium, 13.4 nM) was 102 % untreated control, the “Apoptosis (% untreated control)” value (22RV1 cells [4]; CSS + DHT medium, 40 nM) was 108 % untreated control and the “Apoptosis (% untreated control)” value (22RV1 cells [4]; complete medium, 1.34 nM) was 81 % untreated control. The “Apoptosis (% untreated control)” value (22RV1 cells [4]; complete medium, 4.0 nM) was 76 % untreated control, the “Apoptosis (% untreated control)” value (22RV1 cells [4]; complete medium, 13.4 nM) was 72 % untreated control and the “Apoptosis (% untreated control)” value (22RV1 cells [4]; complete medium, 40 nM) was 123 % untreated control. For the same sequence, the “Apoptosis (% untreated control)” value (VCaP cells; 1.34 nM) was 131 % untreated control, the “Apoptosis (% untreated control)” value (VCaP cells; 4.0 nM) was 108 % untreated control and the “Apoptosis (% untreated control)” value (VCaP cells; 13.4 nM) was 103 % untreated control. The “Apoptosis (% untreated control)” value (VCaP cells; 40 nM) was 146 % untreated control.
